Source: PubChem BioAssay (NCI)
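Growth conditions: 96-well plates. Treatment: test compound, 48 hours, 5 concentrations. Analysis: linear interpolation between bracketing concentrations; unreached endpoints set to highest concentration. Here, GI50 denotes the concentration required for 50% inhibition of growth. TGI denotes the concentration required for complete inhibition of growth.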

Columns and labels:
Assay in all cases: growth of human tumour cells (NCI), 48 h; in the data active means GI50 below about 0.43 µM; inactive means the rest
RPMI-8226 leukemia = system: RPMI-8226 leukemia
HS 578T breast = system: HS 578T breast
MOLT-4 leukemia = system: MOLT-4 leukemia
UO-31 renal = system: UO-31 renal
NCI/ADR-RES ovarian = system: NCI/ADR-RES ovarian
A498 renal = system: A498 renal
HL-60(TB) leukemia = system: HL-60(TB) leukemia
786-0 renal = system: 786-0 renal
OVCAR-5 ovarian = system: OVCAR-5 ovarian
A549 NSCLC = system: A549 NSCLC
NCI-H460 lung = system: NCI-H460 lung
HOP-62 NSCLC = system: HOP-62 NSCLC
OVCAR-3 ovarian = system: OVCAR-3 ovarian
SK-MEL-28 melanoma = system: SK-MEL-28 melanoma
U251 CNS = system: U251 CNS
BT-549 breast = system: BT-549 breast
SR leukemia = system: SR leukemia
SK-OV-3 ovarian = system: SK-OV-3 ovarian
SW-620 colon = system: SW-620 colon
NCI-H23 lung = system: NCI-H23 lung
KM12 colon = system: KM12 colon
EKVX NSCLC = system: EKVX NSCLC
HCC-2998 colon = system: HCC-2998 colon
NCI-H522 lung = system: NCI-H522 lung
MDA-MB-231 breast = system: MDA-MB-231 breast
SF-539 CNS = system: SF-539 CNS
COLO 205 colon = system: COLO 205 colon
OVCAR-8 ovarian = system: OVCAR-8 ovarian
CCRF-CEM leukemia = system: CCRF-CEM leukemia
IGROV1 ovarian = system: IGROV1 ovarian
K-562 leukemia = system: K-562 leukemia
DU-145 prostate = system: DU-145 prostate
SF-295 CNS = system: SF-295 CNS
SK-MEL-2 melanoma = system: SK-MEL-2 melanoma
OVCAR-4 ovarian = system: OVCAR-4 ovarian
UACC-62 melanoma = system: UACC-62 melanoma
NCI-H226 lung = system: NCI-H226 lung
CAKI-1 renal = system: CAKI-1 renal
HT29 colon = system: HT29 colon
HCT-116 colon = system: HCT-116 colon
MALME-3M melanoma = system: MALME-3M melanoma
MCF7 breast = system: MCF7 breast
PC-3 prostate = system: PC-3 prostate
SK-MEL-5 melanoma = system: SK-MEL-5 melanoma
SNB-19 CNS = system: SNB-19 CNS
SN12C renal = system: SN12C renal
HCT-15 colon = system: HCT-15 colon
SF-268 CNS = system: SF-268 CNS
SNB-75 CNS = system: SNB-75 CNS
T-47D breast = system: T-47D breast
ACHN renal = system: ACHN renal
TK-10 renal = system: TK-10 renal
M14 melanoma = system: M14 melanoma
MDA-MB-435 = system: MDA-MB-435
LOX IMVI melanoma = system: LOX IMVI melanoma

COC(=O)[C@@H](C)C[C@H](Cc1ccccc1)NC(=O)c1csc([C@@H](C[C@H](C(C)C)N(C)C(=O)[C@@H](NC(=O)CN(C)C)C2CC2)OC(C)=O)n1
inactive: GI50 (UO-31 renal) 478 nM | GI50 (NCI/ADR-RES ovarian) 13400 nM | GI50 (OVCAR-5 ovarian) 838 nM | GI50 (SK-MEL-28 melanoma) 10200 nM | GI50 (SK-OV-3 ovarian) 434 nM | GI50 (OVCAR-4 ovarian) 1160 nM | GI50 (NCI-H226 lung) 554 nM | GI50 (CAKI-1 renal) 1300 nM | GI50 (T-47D breast) > 16500 nM | GI50 (TK-10 renal) 659 nM
499 nM: TGI (COLO 205 colon)
> 7500 nM: TGI (A498 renal)
> 3280 nM: TGI (CCRF-CEM leukemia)
< 15.3 nM: TGI (MDA-MB-435)
149 nM: TGI (SK-MEL-2 melanoma)
> 7960 nM: TGI (RPMI-8226 leukemia)
> 16500 nM: TGI (HS 578T breast) | TGI (MOLT-4 leukemia) | TGI (UO-31 renal) | TGI (NCI/ADR-RES ovarian) | TGI (786-0 renal) | TGI (OVCAR-5 ovarian) | TGI (A549 NSCLC) | TGI (NCI-H460 lung) | TGI (HOP-62 NSCLC) | TGI (SK-MEL-28 melanoma) | TGI (U251 CNS) | TGI (SR leukemia) | TGI (SK-OV-3 ovarian) | TGI (SW-620 colon) | TGI (NCI-H23 lung) | TGI (EKVX NSCLC) | TGI (HCC-2998 colon) | TGI (MDA-MB-231 breast) | TGI (OVCAR-8 ovarian) | TGI (IGROV1 ovarian) | TGI (K-562 leukemia) | TGI (OVCAR-4 ovarian) | TGI (UACC-62 melanoma) | TGI (CAKI-1 renal) | TGI (MALME-3M melanoma) | TGI (MCF7 breast) | TGI (PC-3 prostate) | TGI (SNB-19 CNS) | TGI (SN12C renal) | TGI (HCT-15 colon) | TGI (SF-268 CNS) | TGI (SNB-75 CNS) | TGI (T-47D breast) | TGI (ACHN renal) | TGI (TK-10 renal) | TGI (LOX IMVI melanoma)
> 10500 nM: TGI (KM12 colon)
> 5860 nM: TGI (HCT-116 colon)
10.6 nM: TGI (HL-60(TB) leukemia)
active: GI50 (RPMI-8226 leukemia) 5.76 nM | GI50 (HS 578T breast) 26.3 nM | GI50 (MOLT-4 leukemia) 50.1 nM | GI50 (A498 renal) 304 nM | GI50 (HL-60(TB) leukemia) 2.72 nM | GI50 (786-0 renal) 38.2 nM | GI50 (A549 NSCLC) 240 nM | GI50 (NCI-H460 lung) 29.1 nM | GI50 (HOP-62 NSCLC) 58.5 nM | GI50 (OVCAR-3 ovarian) 3.09 nM | GI50 (U251 CNS) 55 nM | GI50 (BT-549 breast) 12.7 nM | GI50 (SR leukemia) 1.65 nM | GI50 (SW-620 colon) 13.7 nM | GI50 (NCI-H23 lung) 63.5 nM | GI50 (KM12 colon) 21.5 nM | GI50 (EKVX NSCLC) 208 nM | GI50 (HCC-2998 colon) 57.3 nM | GI50 (NCI-H522 lung) 3.3 nM | GI50 (MDA-MB-231 breast) 85.8 nM | GI50 (SF-539 CNS) 22 nM | GI50 (COLO 205 colon) 23.1 nM | GI50 (OVCAR-8 ovarian) 49.5 nM | GI50 (CCRF-CEM leukemia) 15.4 nM | GI50 (IGROV1 ovarian) 24.5 nM | GI50 (K-562 leukemia) 2.99 nM | GI50 (DU-145 prostate) 16.9 nM | GI50 (SF-295 CNS) 16.8 nM | GI50 (SK-MEL-2 melanoma) 7.01 nM | GI50 (UACC-62 melanoma) 11.2 nM | GI50 (HT29 colon) 13 nM | GI50 (HCT-116 colon) 15.4 nM | GI50 (MALME-3M melanoma) 36.5 nM | GI50 (MCF7 breast) 2.58 nM | GI50 (PC-3 prostate) 26.7 nM | GI50 (SK-MEL-5 melanoma) 12.2 nM | GI50 (SNB-19 CNS) 86.2 nM | GI50 (SN12C renal) 64.7 nM | GI50 (HCT-15 colon) 135 nM | GI50 (SF-268 CNS) 37.3 nM | GI50 (SNB-75 CNS) 6.96 nM | GI50 (ACHN renal) 93.8 nM | GI50 (M14 melanoma) 18.5 nM | GI50 (MDA-MB-435) 1.92 nM | GI50 (LOX IMVI melanoma) 30.1 nM
329 nM: TGI (SF-295 CNS)
> 13200 nM: TGI (NCI-H226 lung)
434 nM: TGI (SK-MEL-5 melanoma)
857 nM: TGI (BT-549 breast)
92.5 nM: TGI (SF-539 CNS)
260 nM: TGI (NCI-H522 lung)
